Test results: paper PMC12443555, “Structural modifications to pregnane neurosteroids alter inhibition of LPS/Lipid A binding at the MD-2 activation site within the TLR4 signaling complex” (Frontiers in Immunology, 2025)

Target: T1, Myeloid Differentiation factor 2 (MD-2) (Homo sapiens, UniProt Q9Y6Y9)
T1 construct: gene LY96; Recombinant human MD-2 (R&D Systems 1787-MD-050/CF)
T1 sequence (Q9Y6Y9 19-160): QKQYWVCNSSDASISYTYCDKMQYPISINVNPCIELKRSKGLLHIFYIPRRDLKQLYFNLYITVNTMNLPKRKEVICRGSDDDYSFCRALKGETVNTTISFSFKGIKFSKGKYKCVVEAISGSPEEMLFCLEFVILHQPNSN
Experiment: SPR competition against Lipid A ([…]) on immobilized MD-2
Format: binding
Details: read-out: Inhibition Constant (Ki)

Compound | Ki [nM]
C[C@]12CC[C@@H](O)C[C@@H]1CC[C@@H]1[C@@H]2CC[C@]2(C)[C@@H](C(=O)CO)CC[C@@H]12 [3α,5α-THDOC] | 57.6
C[C@@]1(O)CC[C@H]2[C@H](CC[C@@H]3[C@@H]2CC[C@]2(C)[C@@H](C(=O)Cn4nccn4)CC[C@@H]32)C1 [SGE 516] | 61.3
CC(=O)[C@H]1CC[C@H]2[C@@H]3CCC4=CC(=O)CC[C@]4(C)[C@H]3CC[C@]12C [progesterone] | 49.4
